According to ChEMBL document CHEMBL3352545, “Two new unusual monoterpene acid glycosides from Acacia cyclops with potential cytotoxic activity” (2014):

Legend:
MCF7 = test: Growth inhibition of human MCF7 cells at 50 ug/mL by MTT assay; assay type: functional; conditions: read-out: GI
OVCAR = test: Growth inhibition of human OVCAR cells at 50 ug/mL by MTT assay; assay type: functional; conditions: read-out: GI

Compound	inhibition of growth at 50 µg/mL (MCF7) [%]	inhibition of growth at 50 µg/mL (OVCAR) [%]
C=CC(C)(CC/C=C(\C)C(=O)O)O[C@@H]1O[C@H](CO)[C@@H](OC(C)(C=C)CC/C=C(/C)C(=O)O)[C@H](O)[C@H]1O (some centres undefined)	98.9	77.7
C=CC(C)(CC/C=C(\C)C(=O)O)O[C@@H]1O[C@@H](C)[C@H](OC(C)(C=C)CC/C=C(\C)C(=O)O)[C@@H](O)[C@H]1O (some centres undefined)	68.2	66.5
